The values that follow come from PubChem BioAssay (NCI).

Test systems include A498 renal; A549 NSCLC; EKVX NSCLC; HCC-2998 colon; HCT-116 colon; HL-60(TB) leukemia; MOLT-4 leukemia; NCI-H226 lung; SR leukemia; UO-31 renal.
Holding throughout (test): inhibition of tumour cell growth, NCI panel, 48 h

Where “and” joins values, the source holds several entries; their conditions need not be identical. Equal values may be shown once.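 How tested: cells in 96-well plates exposed to compound for 48 hours at five concentrations. Abbreviation: GI50, concentration required for 50% inhibition of growth. TGI: concentration producing complete growth inhibition.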 Where a SMILES comes first, the peptide text is derived from it. [ ]: non-standard residue; d: D form. 2Nal = N[CH](Cc1ccc2ccccc2c1)C(=O)O

On to `C=C1CCC2C3(C)COC(c4ccc(Cl)cc4)OC3CCC2(C)C1/C=C/C1=CCOC1=O` (stereo unspecified), for which the GI50 in the assay on A498 renal was 2.18 µM; with A549 NSCLC, 2.37 µM; in the assay with EKVX NSCLC, 0.751 µM; in the assay on HCC-2998 colon, 6.73 µM; with HCT-116 colon, 2.54 µM; with HL-60(TB) leukemia, 17 µM. The GI50 is 4.5 µM with MOLT-4 leukemia, 7.06 µM in the assay with NCI-H226 lung, 1.37 µM in the assay with SR leukemia and greater than 100 µM in the assay with UO-31 renal. Besides, the TGI in the assay on A498 renal is 31.5 µM; with A549 NSCLC, 32.5 µM; in the assay with EKVX NSCLC it was 29.8 µM; in the assay with HCC-2998 colon, greater than 100 µM; in the assay with HCT-116 colon, greater than 100 µM; with HL-60(TB) leukemia it was greater than 100 µM. The TGI in the assay on MOLT-4 leukemia, in the assay on NCI-H226 lung, in the assay with SR leukemia and in the assay with UO-31 renal was greater than 100 µM each time.
As for `CN1CCN(Cc2ccc(NC(=O)c3cncc(C#Cc4cnn5ccccc45)c3)cc2C(F)(F)F)CC1`, the GI50 with A498 renal is 0.821 µM; with A549 NSCLC, 0.723 µM; in the assay on EKVX NSCLC, 0.786 µM; in the assay on HCC-2998 colon, 0.902 µM; in the assay on HCT-116 colon it was 0.294 µM; in the assay with HL-60(TB) leukemia, 0.25 µM. Besides, the GI50 in the assay on MOLT-4 leukemia was 0.358 µM; with NCI-H226 lung, 0.592 µM; in the assay on SR leukemia, 0.322 µM; in the assay on UO-31 renal, 1.17 µM. In addition, the TGI with A498 renal is 1.89 µM; in the assay with A549 NSCLC, 3.56 µM; with EKVX NSCLC, 2 µM; with HCC-2998 colon it was 3.07 µM; with HCT-116 colon, 1.47 µM; in the assay on HL-60(TB) leukemia it was 1.15 µM. Besides, the TGI with MOLT-4 leukemia was 3.56 µM; in the assay with NCI-H226 lung, 3.43 µM; in the assay with SR leukemia it was 2.82 µM; in the assay on UO-31 renal it was 3.39 µM.
On to `CN(C)CCNC(=O)c1cccc2ncc(-c3ccccc3)nc12`, for which the TGI in the assay on A498 renal is 31.4 µM; with A549 NSCLC it was greater than 74.9 µM; in the assay on EKVX NSCLC, 34.3 µM; in the assay with HCC-2998 colon it was 23.4 µM; in the assay with HCT-116 colon, 22 µM; in the assay with HL-60(TB) leukemia, 42.4 µM. Moreover, the TGI with MOLT-4 leukemia is 9.35 µM; in the assay on NCI-H226 lung it was 31.3 µM; in the assay on SR leukemia, 6.95 µM; with UO-31 renal, greater than 67.8 µM.
Regarding `COc1ccc(NC(=O)CCc2cc(C(C)(C)C)n[nH]2)cc1`, the TGI in the assay on A498 renal, in the assay with A549 NSCLC, in the assay with EKVX NSCLC, in the assay with HCC-2998 colon, with HCT-116 colon and in the assay with HL-60(TB) leukemia was greater than 100 µM throughout. Further, the TGI in the assay with MOLT-4 leukemia, in the assay on NCI-H226 lung, in the assay on SR leukemia and in the assay on UO-31 renal was greater than 100 µM in each case.
Take `CC(C)(C)c1ccc(O)c(CN(Cc2cc(C(C)(C)C)ccc2O)C2CCCCC2)c1`: the TGI with A498 renal is 31 µM; with A549 NSCLC it was greater than 56.7 µM; in the assay on EKVX NSCLC, greater than 63.7 µM; with HCC-2998 colon, 4.48 µM; in the assay on HCT-116 colon, 30.6 µM; in the assay on HL-60(TB) leukemia, 33.3 µM. Further, the TGI with MOLT-4 leukemia was 49.8 µM; in the assay on NCI-H226 lung, greater than 100 µM; in the assay with SR leukemia, 31.4 µM; with UO-31 renal, 99.9 µM. In addition, the GI50 is 13.9 µM in the assay on HL-60(TB) leukemia and 28.5 µM in the assay with NCI-H226 lung.
On to `O=C1[C@H](Cl)[C@H]2c3cc4ccccc4nc3Oc3ccccc3N12`, for which the TGI is greater than 100 µM in the assay on A498 renal; greater than 100 µM in the assay with A549 NSCLC; greater than 100 µM with EKVX NSCLC; greater than 100 µM with HCC-2998 colon; 58 µM in the assay on HCT-116 colon; greater than 100 µM with HL-60(TB) leukemia. The TGI in the assay with MOLT-4 leukemia is greater than 100 µM; in the assay on NCI-H226 lung, greater than 100 µM; in the assay with SR leukemia it was greater than 100 µM; in the assay with UO-31 renal, 72.6 µM.
For `CC(C)C(NC(=O)C(CCCCN)NC(=O)C(Cc1c[nH]c2ccccc12)NC(=O)C(Cc1ccc(O)cc1)NC(=O)C(CS)NC(=O)C(N)Cc1ccc2ccccc2c1)C(=O)NC(CS)C(=O)NC(C(N)=O)C(C)O` (stereo unspecified) (H-[2Nal]CYWKVCT-NH2; configuration not given here), the GI50 in the assay with A498 renal was greater than 100 µM; with A549 NSCLC, greater than 100 µM; in the assay on EKVX NSCLC it was greater than 100 µM; in the assay on HCC-2998 colon it was greater than 100 µM; in the assay on HCT-116 colon, 2.52 µM; with HL-60(TB) leukemia, greater than 100 µM. Besides, the GI50 in the assay with MOLT-4 leukemia, in the assay on SR leukemia and with UO-31 renal was greater than 100 µM each time. Moreover, the TGI with A498 renal was greater than 100 µM; with A549 NSCLC it was greater than 100 µM; in the assay with EKVX NSCLC, greater than 100 µM; in the assay on HCC-2998 colon, greater than 100 µM; in the assay with HCT-116 colon, > 12.5 µM and 10.9 µM; with HL-60(TB) leukemia, greater than 100 µM. In addition, the TGI with MOLT-4 leukemia was greater than 100 µM; in the assay with NCI-H226 lung it was greater than 12.5 µM; in the assay with SR leukemia, greater than 100 µM; in the assay with UO-31 renal it was greater than 100 µM.
For the compound `C/C=C(/C)C(=O)OC1C=C(CO)C(=O)C(OC(=O)C(C)(O)C(C)Cl)C1C(C)C` (stereo unspecified), the GI50 in the assay on A498 renal is 1.9 µM; with A549 NSCLC, 2.81 µM; in the assay with EKVX NSCLC, 2.19 µM; in the assay on HCC-2998 colon, 1.79 µM; in the assay on HCT-116 colon, 1.07 µM; in the assay with HL-60(TB) leukemia, 0.358 µM. For the same compound, the GI50 in the assay on MOLT-4 leukemia was 0.301 µM; in the assay with NCI-H226 lung it was 3.72 µM; in the assay on SR leukemia, 0.255 µM; in the assay on UO-31 renal, 1.34 µM. Further, the TGI in the assay on A498 renal was 3.87 µM; in the assay with A549 NSCLC, 9.36 µM; with EKVX NSCLC, 4.9 µM; with HCC-2998 colon, 3.35 µM; in the assay on HCT-116 colon it was 2.49 µM; in the assay with HL-60(TB) leukemia, 5.74 µM. Also, the TGI turned out to be 4.88 µM in the assay on MOLT-4 leukemia, 13 µM in the assay on NCI-H226 lung, 2.16 µM in the assay on SR leukemia and 2.64 µM with UO-31 renal.
In the case of `CC(=O)O/N=C(Cl)/C(Cl)=N/OC(C)=O`, the TGI in the assay with A498 renal, in the assay with A549 NSCLC, in the assay on EKVX NSCLC, in the assay with HCC-2998 colon, with HCT-116 colon and in the assay on HL-60(TB) leukemia was greater than 100 µM each time. In addition, the TGI in the assay on MOLT-4 leukemia, with NCI-H226 lung, in the assay on SR leukemia and with UO-31 renal was greater than 100 µM throughout.
